{"source": "patent US9085559B2", "about": "“Triazine-aryl-bis-indoles and process for preparation thereof” (COUNCIL OF SCIENTIFIC & INDUSTRIAL RESEARCH, priority 2010, dated 2015)", "key": {"PDE-4": {"system": "PDE-4", "experiment": "Phosphodiesterase 4 assay ([3H]cAMP SPA), enzyme preparation from rat heart", "format": "biochemical", "details": "PDE-4 activity, dose 10 μg/ml", "procedure": "FIG. 2. […] To examine whether IICT-TA67 inhibits PDE-4 activity in vitro, enzyme preparations were incubated in the absence or presence of different concentrations (1-20 μg/ml) of IICT-TA67 and breakdown of cAMP was monitored by β counter.\nTable 1. Measurement of phosphodiesterase (PDE)-4 activity by compounds.\nHeart was excised from anesthetized rat and transfer into normal saline solution. […] The homogenate was centrifuged at 500×g for 5 minute at 4° C. Then sup was taken for further centrifuged at 40,000×g for 30 minute (ultra centrifugation). After centrifugation supernatant was collected for phosphodiesterase assay. Protein concentration was estimated and for each assay, 2.5 μg protein (PDE enzyme preparation) was used.\nPhosphodiesterase 4 assay: Phosphodiesterase 4 assay was conducted with [^3H] cAMP SPA enzyme assay (GE Amersham, UK) using 2.5 μg enzyme preparation for each well. Into each well 60 μl water, 10 μl assay buffer supplied with the kit, 10 μl compound (inhibitor), 10 μl PDE enzyme or homogenizing buffer (blank) and 10 μl radiolabel led cAMP ([^3H]cAMP, GE Amersham, UK) were added. To check activity of the enzyme without inhibitor 10 μl DMSO was added in place of inhibitor to a separate well. The reaction mixtures were incubated for 30 mi at 30° C. The reaction was stopped by adding 50 μl SPA bead supplied with the kit. It was then mixed well and allowed to stand at room temperature for 20 min. Breakdown of cAMP in each tube was monitored by β counter. The reading in each tube was obtained in counts per minute (CPM). The reading of the blank tube (without enzyme) was subtracted from each tube to normalize the counts. The enzyme activity was calculated by considering the CPM reading without any inhibitor (compound) as 100."}, "[1]": {"experiment": "Balb/c 3T3 Neutral Red Uptake (NRU) cytotoxicity assay", "format": "cell-based", "details": "mouse", "from_the_text": "(§1) FIG. 8. IICT-TA67 is not toxic. To evaluate the cytotoxicity of test chemical (IICT-TA67) BALB/c 3T3 cell line was used for Neutral Red Uptake (NRU) cytotoxicity test. The test result has been used to determine IC50 for IICT-TA67 and acute oral toxicity (LD50) in rodent was predicted.\n(§2) Basal cytotoxicity of IICT-TA67 has been performed to measure IC50 and thereafter predict in vivo acute oral LD50 values in rodent by using Halle's Registry of cytotoxicity (RC) prediction model: log (LD50)=0.435×log (IC50)+0.625 (Halle, 1998; Spielmann et al., 1999). Balb/c 3T3 Neutral Red Dye Uptake (NRU) cytotoxicity assay procedure was adopted (Liebsch & Spielmann 1995). In brief 3T3 cell were grown in 96 well microtitre plates and exposed to IICT-TA-67. After 48-hour incubation, the test material was removed and Neutral red (NR) solution was applied to the cells. The cells were incubated again, the excess NR solution was removed and finally NR was eluted from the cells. The NRU was determined by using a microtitre plate reader to measure the optical density at 540 nm of the eluted dye in 96 well plate. A calculation of cell viability expressed as NRU was made for each concentration of the test chemical by using the mean NRU of 6 replicate values per test concentration. The cell viability value was compared with the mean NRU of all vehicle control values and relative cell viability was then expressed as percent of untreated vehicle control. […] Although the percentage of viability is slightly more than 95% at 50 μg/ml of IICT-67, 30 μg/ml (% viability of cells is 98%)"}, "BALB/c 3T3 cell line": {"system": "BALB/c 3T3 cell line", "experiment": "Balb/c 3T3 Neutral Red Uptake (NRU) cytotoxicity assay", "format": "cell-based", "details": "for toxicity: NRU cytotoxicity test (FIG. 8)", "from_the_text": "as §1, §2"}, "[2]": {"system": "adhesion of human neutrophils to the endothelial monolayer", "experiment": "Neutrophil adhesion assay on TNF-alpha induced HUVECs", "format": "cell-based", "details": "HUVEC, HUVECs pretreated 2 h, TNF-α 6 h, adhesion 1 h at 37° C.", "procedure": "FIG. 5. IICT-TA67 inhibits the adhesion of Neutrophils on TNF-alpha induced HUVECs. To study whether the inhibition of Intercellular Adhesion Molecule type 1 (ICAM-1) and Vascular Cell Adhesion Molecule type 1(VCAM-1) functionally correlates with the inhibition of adhesion of neutrophils to the endothelial monolayer, neutrophil adhesion assay was performed. For this, HUVECs were pretreated with various concentrations of IICT-TA67 for 2 hours followed by induction with TNF-α for 6 hours. Human blood neutrophils were added onto the endothelial cells monolayer and allowed to adhere for one hour at 37° C. The number of cells that remained adhered to the monolayer was estimated by measuring the peroxidase activity.\nNeutrophils were isolated from peripheral blood of healthy individuals. Blood was collected in heparin solution (20 U/ml) and erythrocytes were removed by sedimentation against 6% dextran solution. […] The number of cells were recorded to make a final concentration of 6×10^5 cells/ml.\nThe endothelial cells plated in 96-well culture plates were incubated with or without compound IICT-TA67 at desired concentrations for 2 h, followed by induction with TNF-α (10 ng/ml) for 6 h. […] The absorbance was read at 490 nm using an automated microplate reader (Model 680, Bio-Rad, USA)."}}, "data": [{"smiles": "COc1ccc(C(c2[nH]c3ccccc3c2CC(=O)O)c2[nH]c3ccccc3c2CC(=O)O)cc1Oc1nc(NC2CC2)nc(NC2CC2)n1", "note": "[Compound 7, 2,2′-[2,2′-3-(4,6-bis-cyclopropylamino)-1,3,5-triazin-2-yl-oxy-4-methoxy-phenyl]-methylene-bis-(1H-indole-3,3-diyl)-diacetic acid]", "values": [{"measurement": "Inhibition %", "setting": "PDE-4", "result": 60, "unit": "%"}, {"measurement": "IC50 at 48 h", "setting": "[1]", "result": 32, "unit": "µg/mL"}, {"measurement": "% viability of cells", "setting": "BALB/c 3T3 cell line; 30 μg/ml", "result": 98, "unit": "%"}, {"measurement": "percentage of viability", "setting": "BALB/c 3T3 cell line; 50 μg/ml", "result": "more than 95%"}, {"measurement": "toxicity", "setting": "BALB/c 3T3 cell line; listed as IICT-67", "result": "does not seem to be toxic to endothelial cells"}, {"measurement": "toxicity", "setting": "BALB/c 3T3 cell line; listed as IICT-TA67", "result": "not toxic"}, {"measurement": "IC50", "setting": "[2]", "result": 12, "unit": "µg/mL"}]}]}
